US20060275285A1, “Methods of inhibiting a GPCR” (Amgen Inc., priority 2005, published 2006)

Legend:
[1] = system: fatty acid synthase mRNA; test: Gene profiling by real time PCR of adipose tissue: fatty acid synthase; assay type: in vivo, mice; details: white adipose tissue; Groups 3 and 4 (25 and 50 mg/kg)
Experimental: (§1) Fed glucose measurements were made at the beginning, midpoint and endpoint of the study. A fasting GTT measurement was done at the midpoint and endpoint of the study. Fed plasma samples were tested for insulin, total cholesterol, free fatty acids, triglycerides, and liver enzymes. At the end of the study, animals were sacrificed and tissue samples (liver, white adipose tissue, brown adipose tissue) were taken for histological evaluation and GPR23 mRNA quantitation.
(§2) Gene profiling experiments were performed to provide additional insight into the mechanism of action associated with GPR23.

[2] = system: PPAR-gamma; test: Gene profiling by real time PCR of adipose tissue: PPAR-gamma; assay type: in vivo, mice; details: Groups 3 and 4 (25 and 50 mg/kg)
Experimental: as §1, §2

[3] = system: GPR23 mRNA; test: GPR23 mRNA quantitation by real time PCR in white adipose tissue of diet induced obese mice; assay type: in vivo; details: Groups 3 and 4 (25 and 50 mg/kg IP weekly for 7 weeks) vs Group 2
Experimental: (§3) GPR23-specific antisense oligos were generated by Isis Pharmaceuticals (Carlsbad, Calif.) and were evaluated for activity in bEND (murine brain endothelial) cells. […] An oligo without homology to any known gene was provided as a control ([…] (SEQ ID NO:10)). For the studies, male C57 black 6 mice were fed a high fat diet for 12 weeks (from 3 weeks of age) and analyzed for parameters of diet induced obesity. Animals that show appropriate symptoms of diet induced obesity (e.g., hyperinsulemia and weight gain with no signs of illness) were divided into 5 groups (10 animals/group) and treated as described below:
(§4) Group 1 (saline treated control): saline IP injection weekly for 7 weeks;
(§5) Group 2 (universal oligo control): oligo IP injection 50 mg/kg body weight, weekly for 7 weeks;
(§6) Group 3 (GPR23 antisense oligo (ASO) treated): oligo IP injection, 25 mg/kg body weight, weekly for 7 weeks;
(§7) Group 4 (GPR23 ASO treated): oligo IP injection, 50 mg/kg body weight, weekly for 7 weeks; and
(§8) Group 5: (rosiglitizone treated control): 50 mg/kg body weight for 7 weeks.
Fed glucose measurements were made at the beginning, midpoint and endpoint of the study. […] At the end of the study, animals were sacrificed and tissue samples (liver, white adipose tissue, brown adipose tissue) were taken for histological evaluation and GPR23 mRNA quantitation. […]

[4] = system: GPR23; test: GPR23-specific antisense oligos evaluated for activity in bEND cells; assay type: cell-based; details: bEND (murine brain endothelial) cells
Experimental: as §3, with “below: […]” for “below:”

[5] = system: hormone sensitive lipase; test: Gene profiling by real time PCR of adipose tissue: hormone sensitive lipase; assay type: in vivo, mice; details: Groups 3 and 4 (25 and 50 mg/kg)
Experimental: as §1, §2

[6] = system: male C57 black 6 mice fed a high fat diet (diet induced obesity); test: GPR23 antisense study in diet induced obesity mice (body composition, serum parameters, liver); assay type: in vivo; details: for body weight: 50 mg/kg IP weekly for 7 weeks (Group 4) vs control animals
Experimental: as §3, §4, §5, §6, §7, §8, §1

[7] = 50 mg/kg IP weekly for 7 weeks (Group 4) vs control oligo (Group 2)
[8] = Groups 3 and 4 (25 and 50 mg/kg), not statistically significant, data not shown

CTCAGTATCATTAGCTTCAA (listed as DNA, chemistry not given here; listed as Mus musculus) [GPR23 antisense oligo]
fatty acid synthase mRNA levels [1]: significantly reduced in a dose-dependent manner
levels of PPAR-gamma [2]: did not change significantly
reduction of GPR23 mRNA levels relative to control oligo treated animals [3]: ~70%
expression of GPR23 in cultured cells [4]: markedly reduced
levels of hormone sensitive lipase [5]: did not change significantly
body weight [6]: weighed slightly less than control animals
body weight ([6]; listed as antisense oligo): weighed less than control animals
fat mass [6, 7]: statistically significant decrease
lean mass [6, 7]: statistically significant increase
liver fat scores ([6]; Groups 3 and 4 (25 and 50 mg/kg)): lower
liver enzymes (a parameter of toxicity) ([6]; Groups 3 and 4 (25 and 50 mg/kg) compared to control groups (Groups 1 and 2)): not significantly different
free fatty acid levels [6, 8]: lower
triglyceride levels [6, 8]: lower
serum cholesterol levels ([6]; both 25 mg/kg and 50 mg/kg doses (Groups 3 and 4), change from baseline at week 7, relative to controls): lowered relative to controls
glucose tolerance tests ([6]; fasting GTT, antisense oligo treatment): not affected
